{"source": "patent US20190038628A1", "about": "“USE OF INHIBITORS OF THE ACTIVITY OR FUNCTION OF PI3K FOR THE TREATMENT OF PRIMARY SJOGREN'S SYNDROME” (Novartis AG, priority 2016, published 2019)", "key": {"[1]": {"tested_on": "Splenic B cell from Balb/c nu/nu mice", "assay": "LPS-induced antibody production from mouse B cells in vitro", "assay_type": "cell-based", "conditions": "Mouse spleen, stimulus LPS/IL-4, readout IgM, mean of at least two experiments", "experimental": "The LPS-induced B cell functions were investigated according to a protocol adapted from Moon (Moon et al 1989) with minor modifications: Splenic B cell from Balb/c nu/nu mice were cultured with mIL-4, mIL-5 and LPS in the presence of titrated amounts of compound. The final concentrations were 0.5×10^5 splenocytes/well, 500 U/ml mIL-4, 500 U/ml mIL-5, and 50 μg/ml LPS. Supernatants were analyzed for antibody production by ELISA after 6 days of incubation."}, "[2]": {"tested_on": "Akt-phosphorylation in IgM+ B cells", "assay": "Time-dependent inhibition of Akt-phosphorylation ex vivo by a single oral dose in rats", "set-up": "species or system Lewis rats", "conditions": "10 mg/kg p.o. single dose; for inhibition at 10 mg/kg: Rattus norvegicus, B-cell, po; for % inhibition of pAkt in IgM+ B cells: rat, individual rats 1-4, 10 mg/kg", "experimental": "All experiments were performed with adult male Lewis rats (LEW/Han/Hsd, Charles River, Germany and LEW/Orl@Rj, Janvier, France), weighing 220-280 g.\nThe suspension for administration was freshly prepared and stored in the dark at room temperature. 14.8 mg of compound A was suspended in 5.92 ml CMC 0.5% with 0.5% Tween80. The milky, homogeneous suspensions were then applied to the animal. The test substances were administered p.o. at in a volume of 4 ml/kg body weight resulting in an oral dose of 10 mg/kg.\nAnimals were anaesthetized with isoflurane using a Fluvac airflow system. Whole blood was collected sublingually pre-dose and at 1, 2, 4, 6, 8, 10, 12 and 24 hours post-dose. For pharmacodynamic analysis 100 μl rat blood was collected per time point in Eppendorf tubes with 30 IU sodium heparin (B. Braun, Melsungen, Germany; 5000 I.U./ml). For pharmacokinetic analysis 150 μl rat blood was collected per time point in EDTA coated Eppendorf (Milian cat# TOM-14) tubes.\nFor ex vivo analysis of blood from drug-treated animals, […] heparinized blood was mixed in 5 ml U-bottom tubes (BD, cat#352063) with […] of RPMI medium (Gibco, cat#31870) immediately after blood collection, and activated with 10 μl of anti-rat IgM/rIL-4 at a final concentration of anti-rat IgM of […] and rIL-4 of 10 ng/ml. Control samples were left unstimulated. Samples were mixed thoroughly and incubated for 10 minutes at 37° C. in the water bath.\nAfter incubation, 2 ml of pre-warmed (37° C. in water bath) BD Phosflow Lyse/Fix buffer was added per tube. Samples were mixed thoroughly and incubated for 20 minutes at 37° C. in the water bath. Then samples were centrifuged at 400 g for 5 minutes. After centrifugation 2 ml of BD Phosflow Perm/wash buffer was added per tube. Samples were mixed thoroughly and incubated at room temperature (RT) in the dark for 10 minutes. Thereafter, the samples were snap-frozen on dry ice and then stored at −80° C. until FACS staining.\nFor thawing, all samples were incubated for 10 minutes in the water bath at 25° C. After centrifugation at 400 g for 5 minutes the pellets were washed with 2 ml of BD Phosflow Perm/wash buffer and again centrifuged at 400 g for 5 minutes. Supernatants were removed. For analysis of pAkt, samples were stained with PE-labeled anti-rat IgM (BD, cat#553888) to allow gating on B cells in FACS analysis. In addition, samples were stained with Alexa647 conjugated anti-phospho-Akt (Ser473; BD, cat#560343). Staining procedures were performed in a total volume of 100 μl BD Phosflow Perm/wash buffer at RT for 30 minutes in the dark. After incubation, samples were washed with 2 ml of BD Phosflow Perm/wash buffer and centrifuged at 400 g for 5 minutes and the pellets were resuspended in 300 μl BD Stain Buffer (BD, cat#554656). Samples were kept on ice until data were acquired on an LSRII flow cytometer (BD Biosciences) using DIVA software (version 6.1.2). Lymphocytes were gated in the FSC/SSC dot blot according to size and granularity and further analyzed for expression of IgM and phosphorylation of Akt. Data were calculated from dot blots or histograms as percentage of cells positively stained for Akt-phosphorylation within the IgM+ population.\nThe effects of the drugs ex vivo were expressed as inhibition of Akt-phosphorylation measured by flow cytometry. The percentage inhibition of Akt-phosphorylation was calculated by the following formula: […]\nGroup of four Lewis rats were treated with a single oral dose of 10 mg/kg of compound A. At indicated time points, 50% rat whole blood was stimulated with anti-rat IgM/rIL-4 and Akt-phosphorylation was determined as described in the Method section."}}, "note": "Where “and” joins values, the source holds several entries; their conditions need not be identical. Identical values can stand only once. Like-named read-outs stand apart in the source and are kept apart here.", "data": [{"smiles": "CCC(=O)N1CC[C@H](Nc2ncnc3c2CN(c2cnc(OC)c(C(F)(F)F)c2)CC3)C1", "note": "[Compound A, 1-{(S)-3-[6-(6-Methoxy-5-trifluoromethyl-pyridin-3-yl)-5,6,7,8-tetrahydro-pyrido[4,3-d]pyrimidin-4-ylamino]-pyrrolidin-1-yl}-propan-1-one]", "values": [{"measurement": "IC50", "setting": "[1]", "result": 234, "unit": "nM"}, {"measurement": "inhibition at 10 mg/kg", "setting": "[2]; 0 h, time 0 h (pre-dose), mean of four animals, read-out: % inhibition of pAkt in IgM+ B cells, Average", "result": 0, "unit": "%"}, {"measurement": "inhibition at 10 mg/kg", "setting": "[2]; 1 h, time 1 h, individual rats 1-4, read-out: % inhibition of pAkt in IgM+ B cells", "result": 100, "unit": "%"}, {"measurement": "inhibition at 10 mg/kg", "setting": "[2]; 1 h, time 1 h, mean of four animals, read-out: % inhibition of pAkt in IgM+ B cells, Average", "result": 98.2, "unit": "%"}, {"measurement": "inhibition at 10 mg/kg", "setting": "[2]; 2 h, time 2 h, individual rats 1-4, read-out: % inhibition of pAkt in IgM+ B cells", "result": 101, "unit": "%"}, {"measurement": "inhibition at 10 mg/kg", "setting": "[2]; 2 h, time 2 h, mean of four animals, read-out: % inhibition of pAkt in IgM+ B cells, Average", "result": 99.6, "unit": "%"}, {"measurement": "inhibition at 10 mg/kg", "setting": "[2]; 4 h, time 4 h, mean of four animals, read-out: % inhibition of pAkt in IgM+ B cells, Average", "result": 95.1, "unit": "%"}, {"measurement": "inhibition at 10 mg/kg", "setting": "[2]; 6 h, time 6 h, mean of four animals, read-out: % inhibition of pAkt in IgM+ B cells, Average", "result": 88.2, "unit": "%"}, {"measurement": "inhibition at 10 mg/kg", "setting": "[2]; 8 h, time 8 h, mean of four animals, read-out: % inhibition of pAkt in IgM+ B cells, Average", "result": 79.4, "unit": "%"}, {"measurement": "inhibition at 10 mg/kg", "setting": "[2]; 10 h, time 10 h, individual rats 1-4, read-out: % inhibition of pAkt in IgM+ B cells", "result": 69, "unit": "%"}, {"measurement": "inhibition at 10 mg/kg", "setting": "[2]; 10 h, time 10 h, mean of four animals, read-out: % inhibition of pAkt in IgM+ B cells, Average", "result": 70.7, "unit": "%"}, {"measurement": "inhibition at 10 mg/kg", "setting": "[2]; 12 h, time 12 h, individual rats 1-4, read-out: % inhibition of pAkt in IgM+ B cells", "result": 74.3, "unit": "%"}, {"measurement": "inhibition at 10 mg/kg", "setting": "[2]; 12 h, time 12 h, mean of four animals, read-out: % inhibition of pAkt in IgM+ B cells, Average", "result": 72.1, "unit": "%"}, {"measurement": "inhibition at 10 mg/kg", "setting": "[2]; 24 h, time 24 h, mean of four animals, read-out: % inhibition of pAkt in IgM+ B cells, Average", "result": 30.2, "unit": "%"}, {"measurement": "% inhibition of pAkt in IgM+ B cells", "setting": "[2]; time 0 h (pre-dose)", "result": "−2.0% and 15.7% and 6.9% and −20.6%"}, {"measurement": "% inhibition of pAkt in IgM+ B cells", "setting": "[2]; time 1 h", "result": "95.6% and 99.1%"}, {"measurement": "% inhibition of pAkt in IgM+ B cells", "setting": "[2]; time 2 h", "result": "97.3% and 101.8%"}, {"measurement": "% inhibition of pAkt in IgM+ B cells", "setting": "[2]; time 4 h", "result": "93.8% and 105.3% and 81.4%"}, {"measurement": "% inhibition of pAkt in IgM+ B cells", "setting": "[2]; time 6 h", "result": "76.1% and 99.1% and 94.7% and 83.1%"}, {"measurement": "% inhibition of pAkt in IgM+ B cells", "setting": "[2]; time 8 h", "result": "83.1% (2×) and 85.8% and 65.4%"}, {"measurement": "% inhibition of pAkt in IgM+ B cells", "setting": "[2]; time 10 h", "result": "76.9% and 62.7%"}, {"measurement": "% inhibition of pAkt in IgM+ B cells", "setting": "[2]; time 12 h", "result": "71.6% and 73.4%"}, {"measurement": "% inhibition of pAkt in IgM+ B cells", "setting": "[2]; time 24 h", "result": "30.8% and 40.6% and 37.0% and 12.2%"}]}]}
